Earlier results, collected in patent US20180015074A1, “USE OF MTOR INHIBITORS TO PREVENT AND REGRESS EDHESIONS AND FIBROSIS” (THE BOARD OF REGENTS OF THE UNIVERSITY OF TEXAS SYSTEM, priority 2015, published 2018).
Where two headings read alike, the source gives them in different places.

Experiments:
post-surgical adhesions = settings: daily IP injection immediately following surgery, rat
[1] = tested on: wound strength in the intestine and abdominal fascia

wound infections (post-surgical adhesions): higher rate of wound infections
wound strength ([1]; administration delayed 2-4 days post-surgery): ameliorated this loss
wound strength ([1]; administration immediately following surgery): serious loss of wound strength
Structure (SMILES): CO[C@H]1C[C@@H]2CC[C@@H](C)[C@@](O)(O2)C(=O)C(=O)N2CCCC[C@H]2C(=O)O[C@H]([C@H](C)C[C@@H]2CC[C@@H](O)[C@H](OC)C2)CC(=O)[C@H](C)/C=C(\C)[C@@H](O)[C@@H](OC)C(=O)[C@H](C)C[C@H](C)/C=C/C=C/C=C/1C [rapamycin, (3S,6R,7E,9R,10R,12R,14S,15E,17E,19E,21S,23S,26R,27R,34aS)-9,10,12,13,14,-21,22,23,24,25,26,27,32,33,34,34a-hexadecahydro-9,27-dihydroxy-3-[(1R)-2-[-(1S,3R,4R)-4-hydroxy-3-methoxycyclohexyl]-1-methylethyl]-10,21-dimethoxy-6,8,12,14,20,26-hexamethyl-23,27-epoxy-3H-pyrido[2,1-c][1,4]oxaazacyclohent-ria-contine-1,5,11,28,29(4H,6H,31H)-pentone]
